# From patent EP0556947A1, “Use of M1-selective antimuscarinic pyridobenzodiazepinones for the treatment and prevention of axial myopia” (MERCK & CO. INC., priority 1992, dated 1993)
# Like-named read-outs stand apart in the source and are kept apart here.
# Tests used:
# M₁ receptors = target: T1, M₁ receptors (Rattus norvegicus, UniProt P08482); assay: ³H-pirenzepine radioligand binding assay, rat cerebral cortex; conditions: for selectivity for M₁ than for M₃ receptors: M₁ (rat cerebral cortex) versus M₃ (rabbit iris + ciliary body) binding; for Ki: read-out: M1 Ki
# T1 construct: M₁ receptors in rat cerebral cortex were labeled with ³H-pirenzepine; from tissue; host or cells: rat cerebral cortex
# T1 sequence (P08482 1-460): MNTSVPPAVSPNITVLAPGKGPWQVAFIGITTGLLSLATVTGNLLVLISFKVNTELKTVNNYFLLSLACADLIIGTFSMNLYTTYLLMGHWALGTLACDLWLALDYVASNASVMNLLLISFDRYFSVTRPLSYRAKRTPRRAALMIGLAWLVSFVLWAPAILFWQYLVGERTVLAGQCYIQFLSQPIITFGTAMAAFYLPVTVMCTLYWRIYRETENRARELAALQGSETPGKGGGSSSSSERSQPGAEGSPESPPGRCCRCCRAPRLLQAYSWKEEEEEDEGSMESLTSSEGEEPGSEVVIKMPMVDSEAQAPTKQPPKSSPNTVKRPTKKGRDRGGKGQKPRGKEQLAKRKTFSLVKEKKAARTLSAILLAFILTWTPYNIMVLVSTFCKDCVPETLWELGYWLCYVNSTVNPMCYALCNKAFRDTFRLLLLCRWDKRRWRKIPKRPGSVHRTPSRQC
# M₂ receptors = target: T2, M₂ receptors (Rattus norvegicus, UniProt P10980); assay: ³H-AFDX-384 radioligand binding assay, rat heart; conditions: ³H AFDX-384 binding; for Ki: mean of 3-7 determinations ± SEM, read-out: M2 Ki
# T2 construct: ³H-AFDX-384 labeled M₂ receptors in rat heart; from tissue; host or cells: rat heart
# T2 sequence (P10980 1-466): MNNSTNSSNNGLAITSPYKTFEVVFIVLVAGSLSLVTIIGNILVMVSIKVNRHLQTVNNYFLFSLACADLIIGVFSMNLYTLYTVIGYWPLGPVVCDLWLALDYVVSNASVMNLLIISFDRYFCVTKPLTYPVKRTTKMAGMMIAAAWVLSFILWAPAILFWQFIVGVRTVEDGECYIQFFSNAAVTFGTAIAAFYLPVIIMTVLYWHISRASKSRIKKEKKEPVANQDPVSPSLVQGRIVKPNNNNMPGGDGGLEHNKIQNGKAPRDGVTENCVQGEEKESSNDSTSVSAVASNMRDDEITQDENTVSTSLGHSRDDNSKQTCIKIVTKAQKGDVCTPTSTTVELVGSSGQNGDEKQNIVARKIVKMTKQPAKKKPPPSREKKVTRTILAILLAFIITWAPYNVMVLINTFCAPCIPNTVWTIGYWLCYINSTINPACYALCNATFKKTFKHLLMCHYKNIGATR
# M₃ receptors = target: T3, M₃ receptors (Oryctolagus cuniculus, UniProt G1U308); assay: ³H-QNB radioligand binding assay, rabbit iris + ciliary body (minus ciliary processes)
# T3 construct: M₃ receptors in rabbit iris + ciliary body; from tissue; host or cells: rabbit iris + ciliary body (minus ciliary processes)
# T3 sequence (G1U308 1-599): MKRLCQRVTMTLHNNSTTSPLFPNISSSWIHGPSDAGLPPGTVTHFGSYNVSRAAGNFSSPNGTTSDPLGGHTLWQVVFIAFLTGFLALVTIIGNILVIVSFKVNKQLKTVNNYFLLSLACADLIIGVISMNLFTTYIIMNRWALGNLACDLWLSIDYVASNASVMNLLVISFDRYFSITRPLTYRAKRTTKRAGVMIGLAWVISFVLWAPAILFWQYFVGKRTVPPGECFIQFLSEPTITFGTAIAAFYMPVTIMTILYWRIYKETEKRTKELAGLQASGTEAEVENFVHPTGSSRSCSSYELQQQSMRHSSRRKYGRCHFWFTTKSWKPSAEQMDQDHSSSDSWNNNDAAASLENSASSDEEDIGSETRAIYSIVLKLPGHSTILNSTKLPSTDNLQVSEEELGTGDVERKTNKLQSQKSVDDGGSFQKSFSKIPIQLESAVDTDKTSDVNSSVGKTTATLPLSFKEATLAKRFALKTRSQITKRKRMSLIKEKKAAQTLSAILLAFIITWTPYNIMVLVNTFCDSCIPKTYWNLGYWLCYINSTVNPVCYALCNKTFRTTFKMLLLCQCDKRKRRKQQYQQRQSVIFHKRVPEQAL
# myopia = conditions: 1.0% atropine applied topically at bedtime, treated eye, one year per eye; cited from earlier work
# [1] = test system: female Dunkin Hartley albino guinea pigs; assay: guinea pig maximization test (sensitization); format: in vivo; conditions: challenge phase, readings on days 24 and 25
# Experimental: The guinea pig maximization test is required by the U.S. Food and Drug Administration of all drugs intended for ophthalmic administration. […] In Phase I, which is the induction phase, on day 1 two intradermal injections at the highest generally tolerated concentration of the test material were administered in the shaved intercapsular area (O.1ml of the test agent in a 50:50 mixture of Freund's complete adjuvant and distilled water). On day 7, approximately 400mg of a mixture of 10% sodium laurel sulfate in petrolatum was applied to the shaved intercapsular area. On day 8, 400mg of a mixture of the test compound in petrolatum was applied, on a 2 x 4 cm piece of Whatman paper to the shaved intercapsular area, along with Blenderm tape.
# In Phase II, which is the challenge phase, on day 22, 200mg of petrolatum was applied to the shaved right flank, while 200mg of test compound at the highest non-irritant concentration (micronized in petrolatum) was applied to the shaved left flank, with each application being occluded for 24 hours.
# Form-deprivation myopia = assay: form-deprivation myopia model in chicks (eyelid suture); format: in vivo, White Leghorn chicks; conditions: expected from M₁ potency relative to pirenzepine; no data reported
# Experimental: Form-deprivation myopia is induced in day-old White Leghorn chicks under aseptic conditions and other anesthesia by eyelid suture to one eye. The chicks are maintained on a 12-hour light:dark cycle. […] Drug is injected daily subconjunctivally during the light cycle. At two weeks of age the animals are sacrificed and axial and equatorial dimensions of unfixed eyes are measured with vernier calipers independently by two observers.
# [2] = test system: axial enlargement of the eye; conditions: ocular administration under image deprivation; cited from earlier work
# [3] = ³H-QNB binding, rabbit iris + ciliary body (minus ciliary processes)
# [4] = ³H Pirenzepine binding, rat cerebral cortex
# [5] = ³H-QNB binding, rabbit iris + ciliary body (minus ciliary processes), mean of 3-7 determinations ± SEM, read-out: M3 Ki
Structure (SMILES),M2 nH (Hill Coefficient) (M₂ receptors),M3 nH (Hill Coefficient) (M₃ receptors; [3]),selectivity for M₁ than for M₃ receptors (M₁ receptors) [fold],Ki (M₁ receptors) [nM],M1 nH (Hill Coefficient) (M₁ receptors; [4]),Ki (M₂ receptors) [nM],Ki (M₃ receptors; [5]) [nM],grade of skin reaction ([1]; in any test animal),effectiveness in myopia therapy (Form-deprivation myopia),further results
"CN1[C@@H]2CC[C@H]1C[C@@H](OC(=O)C(CO)c1ccccc1)C2 (some centres unmarked) [Atropine, reference compound]",1.05,1.1,–,–,–,–,–,–,–,M1 nH (Hill Coefficient) (M₁ receptors): 1.5; Ki (M₃ receptors): 0.37 nM; progression of the myopia (myopia): halted
"CN1CCC(C(=O)N2c3ccccc3C(=O)Nc3cccnc32)CC1 [Nuvenzepine, 11-(1-Methylpiperidin-4-carbonyl)-5,11-dihydro-6H -pyrido[2,3-b][1,4]benzodiazepin-6-one]",1.03,0.80,20,1.5,0.9,248,29.7,0,at least as effective as pirenzepine,–
"CN1CCN(CC(=O)N2c3ccccc3C(=O)Nc3cccnc32)CC1 [Pirenzepine, reference compound]",–,–,–,–,–,–,–,–,–,grade of skin reaction ([1]; in six of nine animals): 1; grade of skin reaction ([1]; in two of nine animals): 2
"CN1CCCC(C(=O)N2c3ccccc3C(=O)Nc3cccnc32)C1 (centres unmarked) [Rispenzepine, 11-(1-Methylpiperidin-3-carbonyl)-5,11-dihydro-6H -pyrido[2,3-b][1,4]benzodiazepin-6-one]",1.00,0.84,15,2.61,0.9,226,38.9,0,at least as effective as pirenzepine,–
CN1CCc2cccc3c2[C@H]1Cc1ccc(O)c(O)c1-3 [apOmorphine],–,–,–,–,–,–,–,–,–,axial enlargement of the eye [2]: inhibit or actually prevent
